What follows are compounds tested against T1, P-selectin/PSGL-1 interaction (Homo sapiens, UniProt P16109) (assay: Biacore P-Selectin/PSGL-1 Inhibition Assay (surface plasmon resonance)). Conditions: 250 uM test compound, 500 nM P.LE, immobilized PSGL-1 19ek, 10% DMSO, pH 7.4.
T1 construct: comprised of the lectin and epidermal growth factor-like (EGF) domains expressed in CHO cells; made in house; host or cells: CHO cells (P-LE)
T1 sequence (P16109 42-198): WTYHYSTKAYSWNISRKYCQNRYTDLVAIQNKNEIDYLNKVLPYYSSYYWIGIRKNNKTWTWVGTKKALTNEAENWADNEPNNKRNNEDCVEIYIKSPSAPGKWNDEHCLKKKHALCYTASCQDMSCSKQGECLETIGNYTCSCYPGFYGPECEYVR
Type: binding
Procedure: Surface plasmon resonance assays were performed on a Biacore 3000 instrument (Biacore Inc. Piscataway, N.J.) at 25° C. at a flow rate of 30 μL/minute and each assay consisted of a 60-second equilibration, a 60-μL sample injection (kinject), and a 300-second dissociation.
A purified, monomeric, truncated form of human PSGL-1, “19ek”, that contained all the necessary P-selectin binding determinants (see Goetz, et al., J. Cell Biol., 1997, 137: 509-519; and Sako, et al., Cell, 1995, 83: 323-331) was biotinylated via amine chemistry (Sulfo-NHS-LC-Biotin, Peirce) at a unique C-terminal lysine residue (see Somers, et al., Cell, 2000, 103: 467-479) and immobilized on a Biacore SA sensor chip (Biacore Inc.), using an HBS-EP buffer (Biacore Inc.), and the target 600-700 RU. The coated chip was re-equilibrated with an HBS-P buffer (Biacore Inc.) to which 1 mM CaCl2 and 1 mM MgCl2 (both from Fisher) were added to ensure sufficient calcium for the calcium-dependent interaction between the receptor and the ligand.
Test compounds were incubated for 1 hour in a 1.1× Biacore assay buffer. Each solution was centrifuged through a 0.2 µm filter, using a 96-well plate format (Millipore). Glycyrrhizin tri-sodium salt (TCI) was prepared as a positive control in parallel with the test compounds, in the same manner described above.
A soluble recombinant truncated form of human P-selectin, P-LE, comprised of the lectin and epidermal growth factor-like (EGF) domains expressed in CHO cells (see Somers, et al., Cell, 2000, 103: 467-479) was added to each filtered test compound solution. Final concentrations of reagents were 500 nM P.LE, 250 or 500 μM test compound (depending on structure) or 1 mM glycyrrhizin, 10% DMSO, and 1× Biacore buffer ([…], 150 mM NaCl, 1 mM CaCl2, and 1 mM MgCl2 (all reagents from Fisher)), with a pH of 7.4. Compounds active at 250 μM were titrated to further define activity. Test samples were supplied to the Biacore instrument in a 96-well plate.
The Biacore raw data file was exported as a text file to an Excel spreadsheet, where the buffer blanks bracketing the samples were averaged for each Biacore instrument flow cell (Fc), and subtracted from the averaged uninhibited P.LE samples and from all the other samples. The reference signal from Fcl (uncoated) was then subtracted from its corresponding active (coated) signal for each injection, a process known as double referencing (see Myszka, J. Mol. Recognit., 1999, 12(5): 279-284). The percent inhibition of binding was calculated by dividing the reference-subtracted inhibited signal by the reference-subtracted uninhibited signal, subtracting this value from 1, and multiplying the resulting value by 100. The replicate percent inhibition values were averaged and expressed as the mean ±standard deviation. The inter-experiment standard deviation of calculated percent inhibitions in the Biacore assay was ±5.

Row | SMILES | inhibition at 250 µM [%]
1 | CCC(C)c1cccc2c(C(=O)O)c(O)c(C3(c4ccc(Cl)cc4)CC3)nc12 (stereo not drawn) [Compound 3, 8-sec-butyl-2-(1-(4-chlorophenyl)cyclopropyl)-3-hydroxyquinoline-4-carboxylic acid] | 18
2 | CC(C)c1cccc2c(C(=O)O)c(O)c(C3(c4ccc(F)cc4)CC3)nc12 [Compound 62, 2-(1-(4-fluorophenyl)cyclopropyl)-3-hydroxy-8-isopropylquinoline-4-carboxylic acid] | 67
3 | O=C(O)c1c(OC(=O)N2CCOCC2)c(Cc2ccc(Cl)cc2)nc2c3c(ccc12)CCCC3 [Compound 138, 2-(4-Chlorobenzyl)-3-[(morpholin-4-ylcarbonyl)oxy]-7,8,9,10-tetrahydrobenzo[h]quinoline-4-carboxylic acid] | 16
4 | O=C(O)c1c(O)c(C2(c3ccc(C(F)(F)F)cc3)CC2)nc2c(-c3ccsc3)cccc12 [Compound 91, 3-hydroxy-8-(thiophen-3-yl)-2-(1-(4-(trifluoromethyl)phenyl)cyclopropyl)quinoline-4-carboxylic acid] | ≤ 10
5 | CCc1cc(C(F)(F)F)cc2c(C(=O)O)c(O)c(C3(c4ccc(Cl)cc4)CC3)nc12 [Compound 99, 2-(1-(4-chlorophenyl)cyclopropyl)-8-ethyl-3-hydroxy-6-(trifluoromethyl)quinoline-4-carboxylic acid] | ≤ 10
6 | O=C(O)c1c(O)c(C2(c3ccc(C(F)(F)F)cc3)CC2)nc2ccc(OC(F)(F)F)cc12 [Compound 90, 3-hydroxy-6-(trifluoromethoxy)-2-(1-(4-(trifluoromethyl)phenyl)cyclopropyl)quinoline-4-carboxylic acid] | 47
7 | Cc1cc(C(F)(F)F)c2nc(C3(c4ccccc4)CC3)c(O)c(C(=O)O)c2c1 [Compound 101, 3-hydroxy-6-methyl-2-(1-phenylcyclopropyl)-8-(trifluoromethyl)quinoline-4-carboxylic acid] | 40
8 | O=C(O)c1c(O)c(C2(c3ccc(Cl)cc3)CC2)nc2c(C(F)(F)F)cccc12 [Compound 38, 2-(1-(4-chlorophenyl)cyclopropyl)-3-hydroxy-8-(trifluoromethyl)quinoline-4-carboxylic acid] | 52
9 | Cc1ccc(C2(c3nc4c(C(C)C)cccc4c(C(=O)O)c3O)CC2)cc1 [Compound 86, 3-hydroxy-8-isopropyl-2-(1-p-tolylcyclopropyl)quinoline-4-carboxylic acid] | 54
10 | O=C(O)c1c(O)c(C2(c3ccccc3)CC2)nc2c(Cl)cccc12 [Compound 47, 8-chloro-3-hydroxy-2-(1-phenylcyclopropyl)quinoline-4-carboxylic acid] | ≤ 10
11 | O=C(O)c1c(O)c(C2(c3ccc(Cl)cc3)CC2)nc2c3c(ccc12)CCCC3 [Compound 36, 2-(1-(4-chlorophenyl)cyclopropyl)-3-hydroxy-7,8,9,10-tetrahydrobenzo[h]quinoline-4-carboxylic acid] | 67
12 | Cc1ccc2c(C(=O)O)c(O)c(CC(C)c3ccccc3)nc2c1C (stereo not drawn) [Compound 137, 3-Hydroxy-7,8-dimethyl-2-(2-phenylpropyl)quinoline-4-carboxylic acid] | 31
13 | CCc1ccc2c(C(=O)O)c(O)c(C3(c4ccc(Cl)cc4)CC3)nc2c1 [Compound 12, 2-(1-(4-chlorophenyl)cyclopropyl)-7-ethyl-3-hydroxyquinoline-4-carboxylic acid] | 13
14 | CC(C)(c1ccc(Cl)cc1)c1nc2c3c(ccc2c(C(=O)O)c1O)CCCC3 [Compound 120, 2-(2-(4-Chlorophenyl)propan-2-yl)-3-hydroxy-7,8,9,10-tetrahydrobenzo[h]quinoline-4-carboxylic acid] | ≤ 10
15 | O=C(O)c1c(O)c(C2(c3ccc(C(F)(F)F)cc3)CC2)nc2c(C(F)(F)F)cccc12 [Compound 52, 3-hydroxy-8-(trifluoromethyl)-2-(1-(4-(trifluoromethyl)phenyl)cyclopropyl)quinoline-4-carboxylic acid] | 47
16 | Cc1ccc2c(C(=O)O)c(O)c(C(c3ccccc3)C(C)C)nc2c1C (stereo not drawn) [Compound 131, 3-Hydroxy-7,8-dimethyl-2-(2-methyl-1-phenylpropyl)quinoline-4-carboxylic acid] | 90
17 | O=C(O)c1c(O)c(C2(c3ccc(Cl)cc3)CC2)nc2c(OC(F)(F)F)cccc12 [Compound 1, 2-(1-(4-chlorophenyl)cyclopropyl)-3-hydroxy-8-(trifluoromethoxy)quinoline-4-carboxylic acid] | 37
18 | O=C(O)c1c(O)c(C2(c3ccc(Cl)cc3)CC2)nc2cc(Cl)ccc12 [Compound 16, 7-chloro-2-(1-(4-chlorophenyl)cyclopropyl)-3-hydroxyquinoline-4-carboxylic acid] | 28
19 | O=C(O)c1c(O)c(C2(c3ccc(F)cc3)CC2)nc2c(-c3ccsc3)cccc12 [Compound 71, 2-(1-(4-fluorophenyl)cyclopropyl)-3-hydroxy-8-(thiophen-3-yl)quinoline-4-carboxylic acid] | 64
20 | CC(C)c1cccc2c(C(=O)O)c(O)c(C(C)(C)c3ccccc3)nc12 [Compound 116, 3-hydroxy-8-isopropyl-2-(2-phenylpropan-2-yl)quinoline-4-carboxylic acid] | 68
21 | Cc1cc(C(F)(F)F)cc2c(C(=O)O)c(O)c(C3(c4ccc(Cl)cc4)CC3)nc12 [Compound 97, 2-(1-(4-chlorophenyl)cyclopropyl)-3-hydroxy-8-methyl-6-(trifluoromethyl)quinoline-4-carboxylic acid] | 40
22 | O=C(O)c1c(O)c(C2(c3ccc(F)cc3)CC2)nc2c(C(O)(C(F)(F)F)C(F)(F)F)cccc12 [Compound 76, 2-(1-(4-fluorophenyl)cyclopropyl)-8-(1,1,1,3,3,3-hexafluoro-2-hydroxypropan-2-yl)-3-hydroxyquinoline-4-carboxylic acid] | 43
23 | COc1ccc(C2(c3nc4c(C(F)(F)F)cccc4c(C(=O)O)c3O)CC2)cc1 [Compound 50, 3-hydroxy-2-(1-(4-methoxyphenyl)cyclopropyl)-8-(trifluoromethyl)quinoline-4-carboxylic acid] | 36
24 | O=C(O)c1c(O)c(C2(c3ccc(Cl)cc3)CC2)nc2c(C(F)(F)F)cc(C(F)(F)F)cc12 [Compound 105, 3-hydroxy-2-(1-(4-chlorophenyl)cyclopropyl)-6,8-bis(trifluoromethyl)quinoline-4-carboxylic acid] | ≤ 10
25 | O=C(O)c1c(O)c(C2(c3ccccc3)CC2)nc2c(C(F)(F)F)cc(C(F)(F)F)cc12 [Compound 106] | 41
26 | O=C(O)c1c(O)c(C2(c3ccc(F)cc3)CC2)nc2cc(Cl)ccc12 [Compound 68, 7-chloro-2-(1-(4-fluorophenyl)cyclopropyl)-3-hydroxyquinoline-4-carboxylic acid] | ≤ 10
27 | O=C(O)c1c(O)c(C2(c3ccccc3)CC2)nc2c(-c3ccsc3)cccc12 [Compound 35, 3-hydroxy-2-(1-phenylcyclopropyl)-8-(thiophen-3-yl)quinoline-4-carboxylic acid] | 70
28 | CC(Cc1ccccc1)c1nc2c(C(F)(F)F)cccc2c(C(=O)O)c1O (stereo not drawn) [Compound 132, 3-Hydroxy-2-(1-Phenylpropan-2-yl)-8-(trifluoromethyl)quinoline-4-carboxylic acid] | 49
29 | O=C(O)c1c(O)c(C2(c3ccc(Cl)cc3)CC2)nc2c(C(F)(F)F)cc(Cl)cc12 [Compound 95, 6-chloro-2-(1-(4-chlorophenyl)cyclopropyl)-3-hydroxy-8-(trifluoromethyl)quinoline-4-carboxylic acid] | ≤ 10
30 | CCc1cccc2c(C(=O)O)c(O)c(C3(c4ccccc4)CC3)nc12 [Compound 14, 8-ethyl-3-hydroxy-2-(1-phenylcyclopropyl)quinoline-4-carboxylic acid] | 23
